Source: patent US6495576B2, “Aminal diones as potassium channel openers” (Abbott Laboratories, priority 2001, dated 2002)
Read-outs that look alike come from different tables or passages of the source.

Test system: Landrace pig bladder strips
Test: Functional potassium channel opening activity in isolated, field-stimulated bladder strips
Details: for Index: ED50 for P1075 divided by ED50 for test agonist in a given tissue, averaged; for EC50: amount causing 50% of the agent's maximal response, field stimulation 0.05 Hz, 0.5 ms, 20 volts, read-out: ED50 (the source's name); for Efficacy (%P1075) / Emax: maximal efficacy on stimulated twitch, relative to P1075
Protocol: Compound were evaluated for functional potassium channel opening activity using tissue strips obtained from Landrace pig bladders.
Landrace pig bladders were obtained from female Landrace pigs of 9-30 kg. Landrace pig were euthanized with an intraperitoneal injection of pentobarbital solution, Somlethal ®, J. A. Webster Inc. Sterling Mass. The entire bladder was removed and immediately placed into Krebs Ringer bicarbonate solution (composition, mM: NaCl, 120; NaHCO3, 20; dextrose, 11; KCl, 4.7; CaCl2, 2.5; MgSO4, 1.5; KH2PO4, 1.2; K2EDTA, 0.01, equilibrated with 5% CO2/95% O2 pH 7.4 at 37° C.). Propranolol (0.004 mM) was included in all of the assays to block β-adrenoceptors. The trigonal and dome portions were discarded. Strips 3-5 mm wide and 20 mm long were prepared from the remaining tissue cut in a circular fashion. The mucosal layer was removed. One end was fixed to a stationary glass rod and the other to a Grass FT03 transducer at a basal preload of 1.0 gram. Two parallel platinum electrodes were included in the stationary glass rod to provide field stimulation of 0.05 Hz, 0.5 milli-seconds at 20 volts. This low frequency stimulation produced a stable twitch response of 100-500 centigrams. Tissues were allowed to equilibrate for at least 60 minutes and primed with 80 mM KCl. A control concentration response curve (cumulative) was generated for each tissue using the potassium channel opener P1075 as the control agonist. […] After a 60 minute rinsing period, a concentration response curve (cumulative) was generated for the test agonist in the same fashion as that used for control agonist P1075. The maximal efficacy of each compound (expressed as % relative to P1075) is reported. The amount of agent necessary to cause 50% of the agent's maximal response (ED50) was calculated using “ALLFIT” (DeLean et al., Am. J. Physiol., 235, E97 (1980)), hereby incorporated by reference. Agonist potencies were also expressed as an index relative to P1075. The index was calculated by dividing the ED50 for P1075 by the ED50 for the test agonist in a given tissue. Each tissue was used for only one test agonist, and the indices obtained from each tissue were averaged to provide an average index of potency.

EC50 [µM]	EC50 (Sus scrofa) [µM]	SMILES	Index	Efficacy (%P1075)	Emax (Sus scrofa) [%]	effect on stimulated twitch (control agonist, dose dependent, 10^−9 to 10^−5 M)
0.84		CC(C)(C)C(NC(=O)c1cccc(F)c1)Nc1c(Nc2cccnc2Cl)c(=O)c1=O (centres unmarked) [Example 78]	0.18	98		
	4.2	CC(C)(C)C(NC(=O)c1cccc(Br)c1)Nc1c(Nc2cccnc2)c(=O)c1=O (centres unmarked) [Example 66, 3-Bromo-N-(1-{[3,4-dioxo-2-(3-pyridinylamino)-1-cyclobuten-1-yl]amino}-2,2-dimethylpropyl)benzamide]	0.040		74	
	2.3	CC(C)(Cc1ccccc1)C(NC(=O)c1cc(F)cc(F)c1)Nc1c(Nc2cccnc2)c(=O)c1=O (centres unmarked) [Example 55, N-(1-{[3,4-Dioxo-2-(3-pyridinylamino)-1-cyclobuten-1-yl]amino}-2,2-dimethyl-3-phenylpropyl)-3,5-difluorobenzamide]	0.053		75	
0.64		CC(C)(Cc1ccccc1)C(NC(=O)c1ccccc1)Nc1c(Nc2cccnc2)c(=O)c1=O (centres unmarked) [Example 86]	0.24	85		
4		CC(C)(C)C(NC(=O)c1cccc(Cl)c1)Nc1c(Nc2cccnc2)c(=O)c1=O (single isomer, unassigned; (-)) [Example 57, (−) 3-Chloro-N-(1-{[3,4-dioxo-2-(3-pyridinylamino)-1-cyclobuten-1-yl]amino}-2,2-dimethylpropyl)benzamide]	0.015		81	
6.8		CC(C)(C)C(NC(=O)c1cc(F)cc(F)c1)Nc1c(Nc2cccnc2)c(=O)c1=O (single isomer, unassigned; (-)) [Example 50, (−)N-(1-{[3,4-Dioxo-2-(3-pyridinylamino)-1-cyclobuten-1-yl]amino}-2,2-dimethylpropyl)-3,5-difluorobenzamide]	0.14		79	

More lines, now with the values behind:

SMILES	EC50 [µM]	EC50 (Sus scrofa) [µM]	Index	Efficacy (%P1075)	Emax (Sus scrofa) [%]	effect on stimulated twitch (control agonist, dose dependent, 10^−9 to 10^−5 M)
CC(C)(C)C(NC(=O)c1cc(Cl)cc(Cl)c1)Nc1c(Nc2cccnc2Cl)c(=O)c1=O (centres unmarked) [Example 79, 3,5-Dichloro-N-[1-({2-[(2-chloropyridin-3-yl)amino]-3,4-dioxocyclobut-1-en-1-yl}amino)-2,2-dimethylpropyl]benzamide]		4.6	0.024		60	
CCC(C)(C)N=C(NC#N)Nc1cccnc1 [Example P1075, reference compound]						completely eliminated the stimulated twitch
CC(C)(C)C(NC(=O)c1cccc(Cl)c1)Nc1c(Nc2cccnc2)c(=O)c1=O (centres unmarked) [Example 5, 3-chloro-N-(1-{[3,4-Dioxo-2-(3-pyridinylamino)-1-cyclobuten-1-yl]amino}-2,2-dimethylpropyl)benzamide]			0.059			
Cc1cccc(C(=O)NC(Nc2c(Nc3cccnc3Cl)c(=O)c2=O)C(C)(C)C)c1 (centres unmarked) [Example 32, N-[1-({2-[(2-Chloro-3-pyridinyl)amino]-3,4-dioxo-1-cyclobuten-1-yl}amino)-2,2-dimethylpropyl]-3-methylbenzamide]			0.076			
CC(C)(C)[C@H](NC(=O)c1cc(Cl)cc(Cl)c1)Nc1c(Nc2cccnc2Cl)c(=O)c1=O [Example 108, (+) 3,5-Dichloro-N-[(1S)-1-({2-[(2-chloropyridin-3-yl)amino]-3,4-dioxocyclobut-1-en-1-yl}amino)-2,2-dimethylpropyl]benzamide]		4.2	0.033		89	
CC(C)(C)C(NC(=O)c1ccc(Cl)cc1)Nc1c(Nc2cccnc2Cl)c(=O)c1=O (centres unmarked) [Example 29, 4-Chloro-N-[1-({2-[(2-chloro-3-pyridinyl)amino]-3,4-dioxo-1-cyclobuten-1-yl}amino)-2,2-dimethylpropyl]benzamide]			0.028			
O=C(NC(Nc1c(Nc2cccnc2)c(=O)c1=O)C(F)(F)C(F)(F)F)c1cccc(Cl)c1 (centres unmarked) [Example 26, 3-Chloro-N-(1-{[3,4-dioxo-2-(3-pyridinylamino)-1-cyclobuten-1-yl]amino}−2,2,3,3,3-pentafluoropropyl)benzamide]			0.64			
